Measured values as given in US4797395A, “1-Acyloxyalkyl esters of cephalosporin” (Takeda Chemical Industries, Ltd., priority 1983, dated 1989).
Counter-ions that a name gives are not always drawn. Like-named read-outs stand apart in the source and are kept apart here.

What was measured:
[1] = mouse, in vivo
Procedure: The compounds of Examples (compound Nos. 1, 2, 3, 4, 5, 6, 7 and 8) and, as a control compound, the pivaloyloxymethyl ester of compound [II] (hereinafter referred to briefly as compound A) are administered orally to mice, each compound to one animal, in the dose of 100 mg/kg in terms of the non-ester, i.e. compound [II]. At 0.25, 0.5, 1.0 and 2.0 hours after administration, the concentration of compound [II] in the plasma of each mouse is measured by the cup method using Proteus mirabilis Eb 313 as the test organism and the area under plasma concentration-time curve from zero to 2 hours (AUC) is calculated. As a control, compound [II] is subcutaneously administered to a mouse and the AUC value is calculated as above. The bioavailability is calculated by means of the following equation. [formula]

Klebsiella pneumoniae = details: gram-negative; Antimicrobial Agent and Chemotherapy 14, 557-568 (1978); cited from earlier work
Staphylococcus aureus = details: gram-positive; Antimicrobial Agent and Chemotherapy 14, 557-568 (1978); cited from earlier work
Proteus vulgaris = details: gram-negative; Antimicrobial Agent and Chemotherapy 14, 557-568 (1978); cited from earlier work
Proteus mirabilis = details: gram-negative; Antimicrobial Agent and Chemotherapy 14, 557-568 (1978); cited from earlier work
Proteus morganii = details: gram-negative; Antimicrobial Agent and Chemotherapy 14, 557-568 (1978); cited from earlier work
Escherichia coli = details: gram-negative; Antimicrobial Agent and Chemotherapy 14, 557-568 (1978); cited from earlier work

For CC(C)C(OC(=O)C1=C(CSc2nnnn2CCN(C)C)CS[C@@H]2[C@H](NC(=O)Cc3csc(N)n3)C(=O)N12)OC(=O)C1CCCCC1.Cl.Cl (stereo partly drawn) [Compound No. 1, 1-(Cyclohexylcarbonyloxy)-2-methylpropyl 7β-[2-(2-aminothiazol-4-yl)acetamido]-3-[[[1-(2-dimethylaminoethyl) -1H-tetrazol-5-yl]thio]methyl]ceph-3-em-4-carboxylate dihydrochloride], the Bioavailability ([1]; 100 mg/kg, 120 min) was 94.4%, the “Plasma level of non-ester (compound [II]), 0.25 hr” value (shortened to “Plasma level of non-ester … 0.25 hr”) ([1]; po, 100 mg/kg, 15 min) was 66300 ng/mL and the “Plasma level of non-ester (compound [II]), 0.5 hr” value (shortened to “Plasma level of non-ester … 0.5 hr”) ([1]; po, 100 mg/kg, 30 min) was 34500 ng/mL. The “Plasma level of non-ester (compound [II]), 1.0 hr” value (from here on “Plasma level of non-ester … 1.0 hr”) ([1]; po, 100 mg/kg, 60 min) was 8900 ng/mL, the AUC ([1]; po, 100 mg/kg, 120 min) was 36600 ng·h/mL and the “Plasma level of non-ester (compound [II]), 2.0 hr” value (“Plasma level of non-ester … 2.0 hr” for short) ([1]; po, 100 mg/kg, 120 min) was 900 ng/mL.

In the case of CCCCC(=O)OC(OC(=O)C1=C(CSc2nnnn2CCN(C)C)CS[C@@H]2[C@H](NC(=O)Cc3csc(N)n3)C(=O)N12)C1CCCCC1.Cl.Cl (stereo partly drawn) [Compound No. 7, 1-n-Pentanoyloxy-1-cyclohexylmethyl 7β-[2-(2-aminothiazol-4-yl)acetamido]-3-[[[1-(2-dimethylaminoethyl)-1H-tetrazol-5-yl]thio]methyl]ceph-3-em-4-carboxylate dihydrochloride], the Bioavailability ([1]; 100 mg/kg, 120 min) is reported as 88.9%, the “Plasma level of non-ester … 0.25 hr” value ([1]; po, 100 mg/kg, 15 min) is reported as 36400 ng/mL and the “Plasma level of non-ester … 0.5 hr” value ([1]; po, 100 mg/kg, 30 min) is reported as 30000 ng/mL. For the same compound, the “Plasma level of non-ester … 1.0 hr” value ([1]; po, 100 mg/kg, 60 min) was 17000 ng/mL, the AUC ([1]; po, 100 mg/kg, 120 min) was 34500 ng·h/mL and the “Plasma level of non-ester … 2.0 hr” value ([1]; po, 100 mg/kg, 120 min) was 3200 ng/mL.

For CCCC(=O)OC(OC(=O)C1=C(CSc2nnnn2CCN(C)C)CS[C@@H]2[C@H](NC(=O)Cc3csc(N)n3)C(=O)N12)C1CCCCC1 (stereo partly drawn) [Compound No. 8, 1-n-Butyryloxy-1-cyclohexylmethyl 7β-[2-(2-aminothiazol-4-yl)acetamido]-3-[[[1-(2-dimethylaminoethyl) -1H-tetrazol-5-yl]thio]methyl]ceph-3-em-4-carboxylate dihydrochloride], the Bioavailability ([1]; 100 mg/kg, 120 min) was 103.5%, the “Plasma level of non-ester … 0.25 hr” value ([1]; po, 100 mg/kg, 15 min) was 50000 ng/mL and the “Plasma level of non-ester … 0.5 hr” value ([1]; po, 100 mg/kg, 30 min) was 39600 ng/mL. The “Plasma level of non-ester … 1.0 hr” value ([1]; po, 100 mg/kg, 60 min) was 15600 ng/mL, the AUC ([1]; po, 100 mg/kg, 120 min) was 40200 ng·h/mL and the “Plasma level of non-ester … 2.0 hr” value ([1]; po, 100 mg/kg, 120 min) was 2330 ng/mL.

With CN(C)CCn1nnnc1SCC1=C(C(=O)OC(OC(=O)C2CCCCC2)C2CCCCC2)N2C(=O)[C@@H](NC(=O)Cc3csc(N)n3)[C@H]2SC1.Cl.Cl (stereo partly drawn) [compound 2, 1-(Cyclohexylcarbonyloxy)-1-cyclohexylmethyl 7β-[2-(2-aminothiazol-4-yl)acetamido]-3-[[[1-(2-dimethylaminoethyl) -1H-tetrazol-5-yl]thio]methyl]ceph-3-em-4-carboxylate dihydrochloride] the Bioavailability ([1]; 100 mg/kg, 120 min) was 107.8%, the “Plasma level of non-ester … 0.25 hr” value ([1]; po, 100 mg/kg, 15 min) was 46100 ng/mL and the “Plasma level of non-ester … 0.5 hr” value ([1]; po, 100 mg/kg, 30 min) was 32200 ng/mL. The “Plasma level of non-ester … 1.0 hr” value ([1]; po, 100 mg/kg, 60 min) was 21200 ng/mL, the AUC ([1]; po, 100 mg/kg, 120 min) was 41900 ng·h/mL and the “Plasma level of non-ester … 2.0 hr” value ([1]; po, 100 mg/kg, 120 min) was 4700 ng/mL.

For CCC(OC(=O)C1=C(CSc2nnnn2CCN(C)C)CS[C@@H]2[C@H](NC(=O)Cc3csc(N)n3)C(=O)N12)OC(=O)C1CCCCC1.Cl.Cl (stereo partly drawn) [compound 3, 1-(Cyclohexylcarbonyloxy)propyl 7β-[2-(2-amino-thiazol-4-yl)acetamido]-3-[[[1-(2-dimethylaminoethyl) -1H-tetrazol-5-yl]thio]methyl]ceph-3-em-4-carboxylate dihydrochloride], the Bioavailability ([1]; 100 mg/kg, 120 min) was 86.4%, the “Plasma level of non-ester … 0.25 hr” value ([1]; po, 100 mg/kg, 15 min) was 59500 ng/mL and the “Plasma level of non-ester … 0.5 hr” value ([1]; po, 100 mg/kg, 30 min) was 25000 ng/mL. For the same compound, the “Plasma level of non-ester … 1.0 hr” value ([1]; po, 100 mg/kg, 60 min) was 11700 ng/mL, the AUC ([1]; po, 100 mg/kg, 120 min) was 33500 ng·h/mL and the “Plasma level of non-ester … 2.0 hr” value ([1]; po, 100 mg/kg, 120 min) was 1000 ng/mL.

For CCCC(OC(=O)C1=C(CSc2nnnn2CCN(C)C)CS[C@@H]2[C@H](NC(=O)Cc3csc(N)n3)C(=O)N12)OC(=O)C1CCCCC1.Cl.Cl (stereo partly drawn) [compound 4, 1-(Cyclohexylcarbonyloxy)butyl 7β-[2-(2-aminothiazol-4-yl)acetamido]-3-[[[1-(2-dimethylaminoethyl) -1H-tetrazol-5-yl]thio]methyl]ceph-3-em-4-carboxylate dihydrochloride], the Bioavailability ([1]; 100 mg/kg, 120 min) was 98.8%, the “Plasma level of non-ester … 0.25 hr” value ([1]; po, 100 mg/kg, 15 min) was 47000 ng/mL and the “Plasma level of non-ester … 0.5 hr” value ([1]; po, 100 mg/kg, 30 min) was 38400 ng/mL. The “Plasma level of non-ester … 1.0 hr” value ([1]; po, 100 mg/kg, 60 min) was 14400 ng/mL, the AUC ([1]; po, 100 mg/kg, 120 min) was 38400 ng·h/mL and the “Plasma level of non-ester … 2.0 hr” value ([1]; po, 100 mg/kg, 120 min) was 2800 ng/mL.

In the case of CC(C)C(OC(=O)CC1CCCCC1)OC(=O)C1=C(CSc2nnnn2CCN(C)C)CS[C@@H]2[C@H](NC(=O)Cc3csc(N)n3)C(=O)N12.Cl.Cl (stereo partly drawn) [compound 5, 1-(Cyclohexylacetoxy)-2-methylpropyl 7β-[2-(2-aminothiazol-4-yl)acetamido]-3-[[[1-(2-dimethylaminoethyl) 1H-tetrazol-5-yl]thio]methyl]ceph-3-em-4-carboxylate dihydrochloride], the Bioavailability ([1]; 100 mg/kg, 120 min) is reported as 88.8%, the “Plasma level of non-ester … 0.25 hr” value ([1]; po, 100 mg/kg, 15 min) is reported as 29200 ng/mL and the “Plasma level of non-ester … 0.5 hr” value ([1]; po, 100 mg/kg, 30 min) is reported as 46700 ng/mL. The “Plasma level of non-ester … 1.0 hr” value ([1]; po, 100 mg/kg, 60 min) was 11100 ng/mL, the AUC ([1]; po, 100 mg/kg, 120 min) was 34500 ng·h/mL and the “Plasma level of non-ester … 2.0 hr” value ([1]; po, 100 mg/kg, 120 min) was 2600 ng/mL.

In the case of CN(C)CCn1nnnc1SCC1=C(C(=O)OCOC(=O)C(C)(C)C)N2C(=O)[C@@H](NC(=O)Cc3csc(N)n3)[C@H]2SC1 [compound A, reference compound], the Bioavailability ([1]; 100 mg/kg, 120 min) is reported as 41.8%, the “Plasma level of non-ester … 0.25 hr” value ([1]; po, 100 mg/kg, 15 min) is reported as 21000 ng/mL and the “Plasma level of non-ester … 0.5 hr” value ([1]; po, 100 mg/kg, 30 min) is reported as 16200 ng/mL. The “Plasma level of non-ester … 1.0 hr” value ([1]; po, 100 mg/kg, 60 min) was 6100 ng/mL and the “Plasma level of non-ester … 2.0 hr” value ([1]; po, 100 mg/kg, 120 min) was 600 ng/mL.

For CN(C)CCn1nnnc1SCC1=C(C(=O)O)N2C(=O)[C@@H](NC(=O)Cc3csc(N)n3)[C@H]2SC1 [compound [II]], the antibacterial activity (Klebsiella pneumoniae) is listed as “potent antibacterial activity”, the antibacterial activity (Staphylococcus aureus) is listed as “potent antibacterial activity” and the antibacterial activity (Proteus vulgaris) is listed as “potent antibacterial activity”. For the same compound, the antibacterial activity (Proteus mirabilis) was “potent antibacterial activity”, the antibacterial activity (Proteus morganii) was “potent antibacterial activity” and the antibacterial activity (Escherichia coli) was “potent antibacterial activity”. The “Plasma level of non-ester … 0.25 hr” value ([1]; sc, 0.25 h) was 69200 ng/mL, the “Plasma level of non-ester … 0.5 hr” value ([1]; sc, 0.5 h) was 29000 ng/mL and the “Plasma level of non-ester … 1.0 hr” value ([1]; sc, 1 h) was 13200 ng/mL. For the same compound, the Bioavailability ([1]; sc, 120 min) was 100% and the “Plasma level of non-ester … 2.0 hr” value ([1]; sc, 2 h) was 1500 ng/mL.
